Measured values: patent US9226501B2, “Pesticidal compositions and processes related thereto” (Dow AgroSciences LLC, priority 2012, dated 2016)

Columns and labels:
Assay type in all cases: in vivo
[1] = tested on: Beet Armyworm (BAW) (spodoptera exigua); assay: Bioassay on beet armyworm (BAW), 128-well diet tray assay; details: for BAW Rating: Table 5, prophetic compounds subsequently exemplified, beet armyworm
Description: (§1) Certain molecules disclosed in this document were tested against BAW, CEW and CL using procedures described in the following examples. In the reporting of the results, the “BAW & CEW & CL Rating Table” was used (See Table Section).
Bioassays on BAW were conducted using a 128-well diet tray assay. One to five second instar BAW larvae were placed in each well (3 mL) of the diet tray that had been previously filled with 1 mL of artificial diet to which 50 μg/cm^2 of the test compound (dissolved in 50 μL of 90:10 acetone-water mixture) had been applied (to each of eight wells) and then allowed to dry. Trays were covered with a clear self-adhesive cover, and held at 25° C., 14:10 light-dark for five to seven days. Percent mortality was recorded for the larvae in each well; activity in the eight wells was then averaged. The results are indicated in the tables entitled “Table 3: Assay Results Part 1” and “Table 4: Assay Results Part 2” (See Table Section).

[2] = tested on: Cabbage Looper (CL) (Trichoplusia ni); assay: Bioassay on cabbage looper (CL), 128-well diet tray assay; details: for CL Rating: Table 5, prophetic compounds subsequently exemplified, cabbage looper
Description: as §1
Bioassays on CL were conducted using a 128-well diet tray assay. One to five second instar CL larvae were placed in each well (3 mL) of the diet tray that had been previously filled with 1 mL of artificial diet to which 50 μg/cm^2 of the test compound (dissolved in 50 μL of 90:10 acetone-water mixture) had been applied (to each of eight wells) and then allowed to dry. Trays were covered with a clear self-adhesive cover, and held at 25° C., 14:10 light-dark for five to seven days. Percent mortality was recorded for the larvae in each well; activity in the eight wells was then averaged. The results are indicated in the table entitled “Table 4: Assay Results Part 2” (See Table Section).

[3] = tested on: green peach aphid (GPA) (Myzus persicae); assay: Bioassay on green peach aphid (GPA), foliar spray on cabbage seedlings; details: 72 h, corrected % control (Abbott), 200 ppm spray on cabbage seedlings, three days, read-out: GPA Rating
Description: Certain molecules disclosed in this document were tested against GPA using procedures described in the following example. In the reporting of the results, the “GPA Rating Table” was used (See Table Section). Cabbage seedlings grown in 3-inch pots, with 2-3 small (3-5 cm) true leaves, were used as test substrate. The seedlings were infested with 20-50 GPA (wingless adult and nymph stages) one day prior to chemical application. Four pots with individual seedlings were used for each treatment. Test compounds (2 mg) were dissolved in 2 mL of acetone/MeOH (1:1) solvent, forming stock solutions of 1000 ppm test compound. The stock solutions were diluted 5× with 0.025% Tween 20 in water to obtain the solution at 200 ppm test compound. A hand-held aspirator-type sprayer was used for spraying a solution to both sides of […] leaves until runoff. Reference plants (solvent check) were sprayed with the diluent only containing 20% by volume of acetone/MeOH (1:1) solvent. Treated plants were held in a holding room for three days at approximately 25° C. and ambient relative humidity (RH) prior to grading. Evaluation was conducted by counting the number of live aphids per plant under a microscope. Percent Control was measured by using Abbott's correction formula (W. S. Abbott, “A Method of Computing the Effectiveness of an Insecticide” J. Econ. Entomol. 18 (1925), pp. 265-267) as follows. […]

Row | SMILES | pest or weed control at 50 µg/cm2 ([1]; Spodoptera exigua, 168 h, % mortality, second instar larvae, 50 μg/cm^2 on artificial diet, five to seven days, 25° C., read-out: BAW Rating) | pest or weed control at 50 µg/cm2 ([2]; Trichoplusia ni, 168 h, % mortality, second instar larvae, 50 μg/cm^2 on artificial diet, five to seven days, 25° C., read-out: CL Rating) | pest or weed control at 200 ppm [3] | BAW Rating [1] | CL Rating [2]
1 | C[C@@H](NC(=O)c1ccc(/C=C/C(c2cc(Cl)c(Cl)c(Cl)c2)C(F)(F)F)cc1I)C(=O)NCC(F)(F)F (stereo partly shown) [FA16] | 50 to 100% | 50 to 100% | 80 to 100% |  | 
2 | C[C@@H](NC(=O)c1ccc(/C=C/C(c2cc(Cl)c(Cl)c(Cl)c2)C(F)(F)C(F)(F)F)cc1C(F)(F)F)C(=O)NCC(F)(F)F (stereo partly shown) [P1601] |  |  |  | A (50-100) | A (50-100)
3 | C[C@@H](NC(=O)c1ccc(/C=C/C(c2cc(Cl)c(Cl)c(Cl)c2)C(F)(F)F)cc1)C(=O)NCC(F)(F)F (stereo partly shown) [P1603] |  |  |  | A (50-100) | A (50-100)
4 | CC(NC(=O)c1ccc(/C=C/C(c2cc(Cl)c(Cl)c(Cl)c2)C(F)(F)F)cc1Br)C(=O)NCC(F)F (stereo not shown) [P1611A] |  |  |  | A (50-100) | A (50-100)
5 | CC(NC(=O)c1ccc(/C=C/C(c2cc(Cl)c(Cl)c(Cl)c2)C(F)(F)F)cc1C(F)(F)F)C(=O)NCC(F)F (stereo not shown) [P1613A] |  |  |  | A (50-100) | A (50-100)
6 | CC(NC(=O)c1ccc(/C=C/C(c2cc(Cl)c(Cl)c(Cl)c2)C(F)(F)F)cc1Br)C(=O)NCCF (stereo not shown) [P1616A] |  |  |  | A (50-100) | A (50-100)
7 | C[C@@H](NC(=O)c1ccc(/C=C/C(c2cc(Cl)c(Cl)c(Cl)c2)C(F)(F)F)cc1Br)C(=O)NCCF (stereo partly shown) [P1616] |  |  |  | A (50-100) | A (50-100)
8 | CC(NC(=O)c1ccc(/C=C/C(c2cc(Cl)c(Cl)c(Cl)c2)C(F)(F)F)cc1C(F)(F)F)C(=O)NCCF (stereo not shown) [P1618A, (E)-N-(1-((2-Fluoroethyl)amino)-1-oxopropan-2-yl)-4-(4,4,4-trifluoro-3-(3,4,5-trichlorophenyl)but-1-en-1-yl)-2-(trifluoromethyl)benzamide] |  |  |  | A (50-100) | A (50-100)
9 | CCNC(=O)[C@@H](C)NC(=O)c1ccc(/C=C/C(c2cc(Cl)c(Cl)c(Cl)c2)C(F)(F)F)cc1Br (stereo partly shown) [P1621] |  |  |  | A (50-100) | A (50-100)
10 | CCNC(=O)[C@@H](C)NC(=O)c1ccc(/C=C/C(c2cc(Cl)c(Cl)c(Cl)c2)C(F)(F)F)cc1C(F)(F)F (stereo partly shown) [P1623] |  |  |  | A (50-100) | A (50-100)
11 | CCNC(=O)[C@@H](C)NC(=O)c1ccc(/C=C/C(c2cc(Cl)c(Cl)c(Cl)c2)C(F)(F)F)cc1C (stereo partly shown) [P1624] |  |  |  | A (50-100) | A (50-100)
12 | CC(NC(=O)c1ccc(/C=C/C(c2cc(Cl)c(Cl)c(Cl)c2)C(F)(F)F)cc1Br)C(=O)NCCC(F)(F)F (stereo not shown) [P1631A] |  |  |  | A (50-100) | A (50-100)
13 | CC(NC(=O)c1ccc(/C=C/C(c2cc(Cl)c(Cl)c(Cl)c2)C(F)(F)F)cc1C(F)(F)F)C(=O)NCCC(F)(F)F (stereo not shown) [P1633A] |  |  |  | A (50-100) | A (50-100)
14 | CC(C)(NC(=O)c1ccc(/C=C/C(c2cc(Cl)c(Cl)c(Cl)c2)C(F)(F)F)cc1)C(=O)NCC(F)(F)F (stereo not shown) [P1636] |  |  |  | A (50-100) | A (50-100)
15 | O=C(CCNC(=O)c1ccc(/C=C/C(c2cc(Cl)c(Cl)c(Cl)c2)C(F)(F)F)cc1Br)NCC(F)(F)F (stereo not shown) [P1638] |  |  |  | A (50-100) | A (50-100)
16 | Cc1cc(/C=C/C(c2cc(Cl)c(Cl)c(Cl)c2)C(F)(F)F)ccc1C(=O)NCCC(=O)NCC(F)(F)F (stereo not shown) [P1641] |  |  |  | A (50-100) | A (50-100)
17 | C[C@@H](NC(=O)c1ccc(/C=C/C(c2cc(Cl)cc(Cl)c2)C(F)(F)C(F)(F)F)cc1Br)C(=O)NCC(F)(F)F (stereo partly shown) [P1691] |  |  |  | A (50-100) | A (50-100)
18 | C[C@@H](NC(=O)c1ccc(/C=C/C(c2cc(Cl)cc(Cl)c2)C(F)(F)C(F)(F)F)cc1C(F)(F)F)C(=O)NCC(F)(F)F (stereo partly shown) [P1693] |  |  |  | A (50-100) | A (50-100)
19 | C[C@@H](NC(=O)c1ccc(/C=C/C(c2cc(Cl)cc(Cl)c2)C(F)(F)F)cc1Br)C(=O)NCC(F)(F)F (stereo partly shown) [P1696] |  |  |  | A (50-100) | A (50-100)
20 | C[C@@H](NC(=O)c1ccc(/C=C/C(c2cc(Cl)cc(Cl)c2)C(F)(F)F)cc1C(F)(F)F)C(=O)NCC(F)(F)F (stereo partly shown) [P1698] |  |  |  | A (50-100) | A (50-100)

Row | SMILES | pest or weed control at 50 µg/cm2 ([1]; Spodoptera exigua, 168 h, % mortality, second instar larvae, 50 μg/cm^2 on artificial diet, five to seven days, 25° C., read-out: BAW Rating) | pest or weed control at 50 µg/cm2 ([2]; Trichoplusia ni, 168 h, % mortality, second instar larvae, 50 μg/cm^2 on artificial diet, five to seven days, 25° C., read-out: CL Rating) | pest or weed control at 200 ppm [3] | BAW Rating [1] | CL Rating [2]
21 | O=C(CNC(=O)c1ccc(/C=C/C(c2ccc(Cl)c(Cl)c2)C(F)(F)F)cc1Br)NCC(F)(F)F (stereo not shown) [P1776] |  |  |  | A (50-100) | A (50-100)
22 | O=C(CNC(=O)c1ccc(/C=C/C(c2ccc(Cl)c(Cl)c2)C(F)(F)F)cc1)NCC(F)(F)F (stereo not shown) [P1781] |  |  |  | A (50-100) | A (50-100)
23 | C[C@@H](NC(=O)c1ccc(/C=C/C(c2ccc(Cl)c(Cl)c2)C(F)(F)F)cc1Br)C(=O)NCC(F)(F)F (stereo partly shown) [P1806] |  |  |  | A (50-100) | A (50-100)
24 | O=C(CNC(=O)c1ccc(/C=C/C(c2cc(Cl)c(F)c(Cl)c2)C(F)(F)F)cc1C(F)(F)F)NCC(F)(F)F (stereo not shown) [P1862] |  |  |  | A (50-100) | A (50-100)
25 | O=C(NCC(=S)NCC(F)(F)F)c1ccc(/C=C/C(c2cc(Cl)c(F)c(Cl)c2)C(F)(F)F)cc1Br (stereo not shown) [P1864] |  |  |  | A (50-100) | A (50-100)
26 | O=C(NCC(=S)NCC(F)(F)F)c1ccc(/C=C/C(c2cc(Cl)c(F)c(Cl)c2)C(F)(F)F)cc1C(F)(F)F (stereo not shown) [P1866] |  |  |  | A (50-100) | A (50-100)
27 | O=C(CNC(=O)c1ccc(/C=C/C(c2cc(Br)cc(Br)c2)C(F)(F)F)cc1Cl)NCC(F)(F)F (stereo not shown) [P1970] |  |  |  | A (50-100) | A (50-100)
28 | O=C(CNC(=O)c1ccc(/C=C/C(c2cc(Br)cc(Br)c2)C(F)(F)F)cc1C(F)(F)F)NCC(F)(F)F (stereo not shown) [P1971] |  |  |  | A (50-100) | A (50-100)
29 | Cc1cc(/C=C/C(c2cc(Br)cc(Br)c2)C(F)(F)F)ccc1C(=O)NCC(=O)NCC(F)(F)F (stereo not shown) [P1972] |  |  |  | A (50-100) | A (50-100)
30 | CC(NC(=O)CNC(=O)c1ccc(/C=C/C(c2cc(Br)cc(Br)c2)C(F)(F)F)cc1Br)C(F)(F)F (stereo not shown) [P2009] |  |  |  | A (50-100) | A (50-100)
31 | CC(NC(=O)CNC(=O)c1ccc(/C=C/C(c2cc(Br)cc(Br)c2)C(F)(F)F)cc1Cl)C(F)(F)F (stereo not shown) [P2010] |  |  |  | A (50-100) | A (50-100)
32 | CC(NC(=O)CNC(=O)c1ccc(/C=C/C(c2cc(Br)cc(Br)c2)C(F)(F)F)cc1C(F)(F)F)C(F)(F)F (stereo not shown) [P2011] |  |  |  | A (50-100) | A (50-100)
33 | Cc1cc(/C=C/C(c2cc(Br)cc(Br)c2)C(F)(F)F)ccc1C(=O)NCC(=O)NC(C)C(F)(F)F (stereo not shown) [P2012] |  |  |  | A (50-100) | A (50-100)
34 | C[C@@H](NC(=O)c1ccc(/C=C/C(c2cc(Br)cc(Br)c2)C(F)(F)F)cc1Br)C(=O)NCC(F)F (stereo partly shown) [P2036] |  |  |  | A (50-100) | A (50-100)
35 | C[C@@H](NC(=O)c1ccc(/C=C/C(c2cc(Br)cc(Br)c2)C(F)(F)F)cc1C(F)(F)F)C(=O)NCC(F)F (stereo partly shown) [P2038] |  |  |  | A (50-100) | A (50-100)
36 | C[C@@H](NC(=O)c1ccc(/C=C/C(c2cc(Br)cc(Br)c2)C(F)(F)F)cc1Br)C(=O)NCCF (stereo partly shown) [P2041] |  |  |  | A (50-100) | A (50-100)
37 | C[C@@H](NC(=O)c1ccc(/C=C/C(c2cc(Br)cc(Br)c2)C(F)(F)F)cc1C(F)(F)F)C(=O)NCCF (stereo partly shown) [P2043] |  |  |  | A (50-100) | A (50-100)
38 | C[C@@H](NC(=O)c1ccc(/C=C/C(c2cc(Br)cc(Br)c2)C(F)(F)F)cc1Br)C(=O)NCCC(F)(F)F (stereo partly shown) [P2056] |  |  |  | A (50-100) | A (50-100)
39 | C[C@@H](NC(=O)c1ccc(/C=C/C(c2cc(Br)cc(Br)c2)C(F)(F)F)cc1C(F)(F)F)C(=O)NCCC(F)(F)F (stereo partly shown) [P2058] |  |  |  | A (50-100) | A (50-100)
